Values quoted from earlier work in patent US20040198651A1, “Secreted proteins” (priority 2001, published 2004).

Legend:
[1] = relative to progesterone
[2] = intranasal; relative to hydrocortisone

Compound	pharmacological activity greater than progesterone [1]	anti-inflammatory and vasoconstrictive effects greater than those produced by hydrocortisone [2] [times]
6α-methyl-17-hydroxyprogesterone [medroxyprogesterone]	about 15 times	
C[C@H]1C[C@H]2[C@@H]3CCC4=CC(=O)C=C[C@]4(C)[C@@]3(Cl)[C@@H](O)C[C@]2(C)[C@@]1(O)C(=O)CO [beclomethasone]		5000
